This note sets out measurements from ChEMBL document CHEMBL1201862, “PubChem BioAssay data set” (2004).

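Exposure lasted 48 hours, with cells grown in 96-well plates and compounds tested at five concentrations. GI50 marks 50% less growth.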 Active and inactive are the calls of the source. Cut-off read from the data, not from the text of the source: active = GI50 up to about 1.1 µM and inactive = higher. Bounds are passed on as bounds.

What all share (assay): NCI tumour cell line growth inhibition, 48 h
In assay [1] the test system is 786-0.
In assay [2] the test system is HCT-15.
Assay [3] relates to HL-60.
In assay [4] the test system is HOP-92.
For assay [5], the system named is KM12.
Assay [6] concerns LOX IMVI.
For assay [7], the system named is M14.
Assay [8] concerns MCF7.
Assay [9] has as its system MOLT-4.
Assay [10] has as its system Malme-3M.
The subject of assay [11] is NCI/ADR-RES.
For assay [12], the system named is SF-295.
Assay [13] deals with SK-MEL-5.
Assay [14] deals with SNB-19.
Assay [15] has as its system CCRF-CEM.
Assay [16] has as its system SNB-75.
Assay [17] deals with TK-10.
The test system of assay [18] is NCI-H460.
Assay [19] concerns SF-539.
The test system of assay [20] is HCC 2998.

On to `O=P(OCc1ccccc1)(OCc1ccccc1)C(O)/C=C/c1ccccc1` (stereo unspecified), for which the GI50 is 17.7 µM (inactive) in assay [1]; 36.8 µM in [2]; 19.8 µM (inactive) in assay [3]; 19.4 µM (inactive) in assay [4]; 19.8 µM (inactive) in assay [5]; 14.9 µM (inactive) in [6]. Besides, the GI50 in [7] is 18.1 µM (inactive); in assay [8], 27.6 µM (inactive); in assay [9], 21.6 µM (inactive); in assay [10] it was 19.6 µM (inactive); in [11] it was 26.5 µM (inactive); in assay [12], 20.3 µM (inactive). In addition, the GI50 is 19.3 µM (inactive) in assay [13] and 23 µM (inactive) in assay [14].

Regarding `CC(=O)c1ccc2c3c1[C@H]1O[C@H]1c1cccc(c1-3)[C@@H]1O[C@H]21`, the GI50 in assay [1] is 2 µM (inactive); in assay [15] it was 1.61 µM (inactive); in assay [2] it was 0.959 µM; in assay [3] it was 2.58 µM (inactive); in [4], 1.57 µM (inactive); in assay [5], 1.87 µM (inactive). Besides, the GI50 is 0.31 µM (active) in assay [6]; 1.61 µM (inactive) in assay [7]; 2.34 µM (inactive) in assay [8]; 3.06 µM (inactive) in assay [9]; 1.37 µM (inactive) in assay [10]; 1.98 µM (inactive) in assay [11]. Further, the GI50 in assay [12] was 4.52 µM (inactive); in assay [13], 2.17 µM (inactive); in [14], 2.98 µM (inactive); in assay [16] it was 1.93 µM (inactive); in assay [17], 4.21 µM (inactive).

Regarding `N[C@H](Cc1ccc2oc3cc(=O)c4ccccc4c-3nc2c1)C(=O)O`, the GI50 is 89.9 µM (inactive) in assay [1]; 20.9 µM (inactive) in assay [15]; 39.4 µM in assay [2]; 27.7 µM (inactive) in assay [3]; > 100 µM (inactive) in [4]; 37.3 µM (inactive) in assay [5]. Further, the GI50 in assay [6] was 33.2 µM (inactive); in assay [7], 19.3 µM (inactive); in [8], 28.5 µM (inactive); in assay [9], 37.8 µM (inactive); in [10] it was 21 µM (inactive); in [18] it was 25.9 µM (inactive). For the same compound, the GI50 in assay [11] is > 100 µM (inactive); in [12] it was 42 µM (inactive); in assay [19], 42.8 µM (inactive); in assay [13], 20.1 µM (inactive); in assay [14], 34.4 µM (inactive); in assay [16] it was 67 µM (inactive). Also, in assay [17], the GI50 was 97.5 µM (inactive).

Regarding `CN1CCCCCC(=N\O)/C(=N/O)CCCCC1`, the GI50 in assay [1] is > 100 µM (inactive); in assay [15], > 100 µM (inactive); in [2] it was more than 100 µM; in assay [3], > 100 µM (inactive); in assay [4], > 100 µM (inactive); in assay [5], > 100 µM (inactive). The GI50 in [6], in assay [7], in assay [8], in assay [9], in assay [10] and in assay [18] was > 100 µM (inactive) in each case. In addition, the GI50 in [11], in assay [12], in assay [19], in [13], in [14] and in [16] was > 100 µM (inactive) in each case. Moreover, the GI50 in assay [17] was > 100 µM (inactive).

As for `Cc1c[nH]c(C(=O)O)c1-c1ccc2c(-c3ccccc3)nc3ccccc3n12`, the GI50 is 33.3 µM (inactive) in assay [1]; 36.3 µM (inactive) in assay [15]; 13.7 µM (inactive) in assay [20]; 30 µM in assay [2]; 32.9 µM (inactive) in [4]; 20 µM (inactive) in assay [5]. Moreover, the GI50 in [6] was 27.1 µM (inactive); in assay [7], 31.7 µM (inactive); in [8] it was 34 µM (inactive); in assay [9], 34.2 µM (inactive); in assay [18], 22.9 µM (inactive); in assay [11] it was 17.2 µM (inactive). Besides, the GI50 in [12] was 22.7 µM (inactive); in assay [19], 19.5 µM (inactive); in assay [13], 30.5 µM (inactive); in assay [16], 17.5 µM (inactive); in assay [17] it was 29.2 µM (inactive).

Turning to `COc1cc2c(cc1OCCCN1CCOCC1)N=C[C@@H]1CCCN1C2=O`, the GI50 is 4.16 µM (inactive) in assay [1]; 2.75 µM (inactive) in assay [15]; 24.9 µM in assay [2]; 5.74 µM (inactive) in assay [3]; 2.37 µM (inactive) in assay [4]; 13.4 µM (inactive) in assay [5]. For the same compound, the GI50 in [6] is 4.48 µM (inactive); in assay [7], 11 µM (inactive); in assay [8], 7.24 µM (inactive); in assay [9], 4.91 µM (inactive); in [10], 8.3 µM (inactive); in assay [18], 24.5 µM (inactive). Besides, the GI50 in [11] is 35 µM (inactive); in [12], 9.59 µM (inactive); in assay [19] it was 4.7 µM (inactive); in [13] it was 4.07 µM (inactive); in [14] it was 18.8 µM (inactive); in assay [17] it was 19.8 µM (inactive).

As to `COc1cc(/C=C2\Cc3cc(OC)c(OC)cc3C2=O)cc(OC)c1`, the GI50 in assay [1] was 19.2 µM (inactive); in assay [15], > 100 µM (inactive); in [2], 5.26 µM; in assay [3] it was 3.18 µM (inactive); in [4], 22.8 µM (inactive); in [6], > 55.7 µM (inactive). In addition, the GI50 was > 100 µM (inactive) in assay [7]; > 86.5 µM (inactive) in assay [8]; > 100 µM (inactive) in [9]; 15.8 µM (inactive) in assay [10]; 15.1 µM (inactive) in assay [18]; 0.904 µM (active) in assay [11]. Moreover, the GI50 in [12] was 4.2 µM (inactive); in assay [19], 13.1 µM (inactive); in assay [13] it was 10.8 µM (inactive); in assay [14] it was 25.8 µM (inactive); in assay [16] it was 9.53 µM (inactive); in assay [17], 48 µM (inactive).

Consider `CC(C)(C)C(=O)CP(=O)(O)O`, for which the GI50 was > 100 µM (inactive) in assay [1]; > 100 µM (inactive) in assay [15]; more than 100 µM in assay [2]; > 100 µM (inactive) in assay [3]; > 100 µM (inactive) in [4]; > 100 µM (inactive) in [5]. Besides, the GI50 in [6], in assay [7], in assay [8], in assay [9], in assay [10] and in [18] was > 100 µM (inactive) each time. Besides, the GI50 in [11], in [12], in [19], in assay [13], in assay [14] and in assay [16] was > 100 µM (inactive) each time. In assay [17], the GI50 was > 100 µM (inactive).
